In ChEMBL document CHEMBL4715696, “In vitro synergistic anticancer activity of the combination of T-type calcium channel blocker and chemotherapeutic agent in A549 cells” (Bioorg Med Chem Lett, 2016):

What was measured:
[1] = Metabolic stability in rat plasma assessed as parent compound remaining at 10 uM measured after 30 mins; assay type: ADME, cell-free; settings: read-out: Stabilty
A549 = assay: Potentiation of etoposide-induced cell cycle arrest in human A549 cells assessed as accumulation at sub G1 phase at 10 uM in presence of etoposide after 48 hrs by flow cytometric analysis (Rvb =33 %); assay type: functional

remaining at 0.5 h, 10 µM [1]: 49.4%
SMILES: CN(C)C(=O)NCCCN(C)C1=Nc2ccccc2C(CC(=O)NCc2ccc(F)cc2)N1c1ccc(C2CCCCC2)cc1 (configuration not stated)
Activity (A549): 83.1%
